Results taken from patent US9816227B2, “Textile products with herbal composition to render the fabrics insects repellent” (priority 2013, dated 2017).

Columns and labels:
[1] = test system: insects (larvae, pupae, adults); test: Exposure of insect larvae: inhibition of development to pupae and adults; assay type: in vivo
Description: The possible effect of azadirachtin and other bioflavonoids including azadiradione, fraxinellone, nimbin, salannin, salannol, vepinin and vilasinin, the active components of the Neem seed oil extract, are inhibiting molting in larvae to pupae and adults of the most of the insects. Apart from delayed lethal action, effects on the pupation, adult emergence, and size of pupae or adults have been also observed. […] The compounds are characterized by their inhibition or prevention of formation of adult morphology. The effects on pupae (based on proportion of undeveloped individuals) and adults (based on incomplete development, attachment to puparia, or inability to fly) are dose-dependent.
No adults of insects are obtained at doses of 1.10, 10 and 100 μg/ml. These concentrations cause about 100% mortality of larvae or developed pupae. […] The treatments with 0.00001 and 0.001 μg/ml would result in an insignificant increase (0.8-1.6%) in the female wing length/width.

[2] = test system: desert locust (Schistocerca gregaria); settings: in vivo; cited from earlier work
[3] = exposed to light and water; cited from earlier work

## C/C=C(\C)C(=O)O[C@H]1C[C@@H](OC(C)=O)[C@@]2(C(=O)OC)CO[C@H]3[C@@H](O)[C@@](C)([C@]45O[C@@]4(C)[C@H]4C[C@@H]5O[C@@H]5OC=C[C@@]54O)[C@H]4[C@]1(CO[C@]4(O)C(=O)OC)[C@@H]32 [azadirachtin, dimethyl (2aR,3S,4S,R,S,7aS,8S,10R,10aS,10bR)-10-(acetyloxy)-3,5-dihydroxy-4-[(1S,2S,6S,8S,9R,11S)-2-hydroxy-11-methyl-5,7,10-trioxatetracyclo[6.3.1.02,6.09,11]dodec-3-en-9-yl]-4-methyl-8-{[(2E)-2-methylbut-2-enoyl]oxy}octahydro-1H-furo[3′,4′:4,4a]naphtho[1,8-bc]furan-5,10a(8H)-dicarboxylate]
[1]; 0.00001 and 0.001 μg/ml, insignificant
  increase in the female wing length/width: 0.8-1.6%
[1]; 0.001, 0.01 and 0.1 μg/ml
  effect on wing dimensions of females: do not significantly affect
[1]; treatment of larvae with 0.00001 to 0.1 μg/ml
  pupal weights and dimensions, adult weights, wing dimensions, or interocular distances: significant reductions
[2]
  feeding inhibitor activity: active
[3]
  degradation time: ≤ 100 h
